What was measured:
CBS^Δ516–525 [1] = molecular target: T1, CBS^Δ516–525 (Homo sapiens, UniProt P35520, DEL516-525); assay: AzMC fluorescence H2S production; assay type: biochemical; settings: read-out: Kact
T1 construct: full-length with regulatory domain loop 516-525 deleted, E. coli Rosetta (DE3); dimer; no C-terminal His-tag
T1 sequence (P35520 with tags, fused parts or gaps DEL516-525): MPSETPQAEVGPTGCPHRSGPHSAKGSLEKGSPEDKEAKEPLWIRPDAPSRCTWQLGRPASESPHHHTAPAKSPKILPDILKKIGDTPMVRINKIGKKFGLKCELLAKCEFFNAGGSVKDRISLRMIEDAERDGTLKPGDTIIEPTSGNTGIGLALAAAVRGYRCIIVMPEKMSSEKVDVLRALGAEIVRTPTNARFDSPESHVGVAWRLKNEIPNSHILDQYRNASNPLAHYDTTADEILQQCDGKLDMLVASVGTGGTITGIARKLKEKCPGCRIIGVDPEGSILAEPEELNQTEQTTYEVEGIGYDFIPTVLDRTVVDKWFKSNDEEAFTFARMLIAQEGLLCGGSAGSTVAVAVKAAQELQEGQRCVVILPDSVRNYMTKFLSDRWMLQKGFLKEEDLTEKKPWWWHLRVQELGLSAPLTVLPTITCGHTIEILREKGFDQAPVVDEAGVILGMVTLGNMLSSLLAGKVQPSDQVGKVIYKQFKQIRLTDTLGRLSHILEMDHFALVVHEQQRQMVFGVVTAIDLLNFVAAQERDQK

CBS^Δ516–525 [2] = molecular target: T1, CBS^Δ516–525; assay: ITC; assay type: binding; settings: 25 °C, 20 mM HEPES pH 7.4; two-site fit

- EC50 (CBS^Δ516–525 [1]): 26 to 36 µM
Compound: C[S+](CC[C@H](N)C(=O)O)C[C@H]1O[C@@H](n2cnc3c(N)ncnc32)[C@H](O)[C@@H]1O (stereo partly drawn) [S-adenosyl-L-methionine]
- Kd (CBS^Δ516–525 [2]): also presented two events, though this construct is dimeric
